# Test results published in PubChem BioAssay AID2060499 (Molecular Pharmacology Branch, DTP, NCI, 2025).
# Test system: 777334-354-R2-J4-PDC tumor spheroids with HUVEC/MSC, viability
# Test: Anticancer human tumor 777334-354-R2-J4-PDC patient-derived pancreatic adenocarcinoma cell line growth inhibition [GQUAD]
# Details: for IC50: curve of first compound; for viability, T/C: stronger effect = lower value
# In short: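 Viability of tumor cells grown as complex spheroids with endothelial and stromal cells, exposed to drug combinations. Top concentration at or near clinical Cmax (else 10 microM), diluted in half-log increments.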
# [1] = second compound 0.0316 µM, first compound 0.0316 µM
# [2] = second compound 0.0316 µM, first compound 0.1 µM
# [3] = second compound 0.0316 µM, first compound 0.316 µM
# [4] = second compound 0.0316 µM, first compound 1 µM
# [5] = second compound 0.0316 µM, first compound 3.16 µM
# [6] = second compound 0.0316 µM, first compound 10 µM
# [7] = second compound 0.1 µM, first compound 0.0316 µM
# [8] = second compound 0.1 µM, first compound 0.1 µM
# [9] = second compound 0.1 µM, first compound 0.316 µM
# [10] = second compound 0.1 µM, first compound 1 µM
# [11] = second compound 0.1 µM, first compound 3.16 µM
# [12] = second compound 0.1 µM, first compound 10 µM
# [13] = second compound 0.316 µM, first compound 0.0316 µM
# [14] = second compound 0.316 µM, first compound 0.1 µM
# [15] = second compound 0.316 µM, first compound 0.316 µM
# [16] = second compound 0.316 µM, first compound 1 µM
# [17] = second compound 0.316 µM, first compound 3.16 µM
# [18] = second compound 0.316 µM, first compound 10 µM
# [19] = second compound 1 µM, first compound 0.0316 µM
# [20] = second compound 1 µM, first compound 0.1 µM
# [21] = second compound 1 µM, first compound 0.316 µM
# [22] = second compound 1 µM, first compound 1 µM
# [23] = second compound 1 µM, first compound 3.16 µM
# [24] = second compound 1 µM, first compound 10 µM
# [25] = second compound 3.16 µM, first compound 0.0316 µM
# [26] = second compound 3.16 µM, first compound 0.1 µM
# [27] = second compound 3.16 µM, first compound 0.316 µM
# [28] = second compound 3.16 µM, first compound 1 µM
# [29] = second compound 3.16 µM, first compound 3.16 µM
# [30] = second compound 3.16 µM, first compound 10 µM
# [31] = second compound 10 µM, first compound 0.0316 µM
# [32] = second compound 10 µM, first compound 0.1 µM
# [33] = second compound 10 µM, first compound 0.316 µM
# [34] = second compound 10 µM, first compound 1 µM
# [35] = second compound 10 µM, first compound 3.16 µM
# [36] = second compound 10 µM, first compound 10 µM
# 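Note: spheroids exposed to compounds for 7 days before readout.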
smiles,measurement,setting,value
C=CC(=O)N1CCN(c2nc(=O)n(-c3c(C)ccnc3C(C)C)c3nc(-c4c(O)cccc4F)c(F)cc23)C(C)C1 (stereo not drawn) + Cc1cnc(CNC(=O)c2c(=O)c3ccc(N4CCCN(C)CC4)nc3n3c2sc2ccccc23)cn1,IC50,second compound 0.0316 µM,> 10 µM
same,IC50,second compound 0.1 µM,> 10 µM
same,IC50,second compound 0.316 µM,> 10 µM
same,IC50,second compound 1 µM,> 10 µM
same,IC50,second compound 3.16 µM,> 10 µM
same,IC50,second compound 10 µM,> 10 µM
same,"viability, T/C",[1],106%
same,"viability, T/C",[2],75.7%
same,"viability, T/C",[3],96.2%
same,"viability, T/C",[4],106%
same,"viability, T/C",[5],110%
same,"viability, T/C",[6],97.2%
same,"viability, T/C",[7],95.3%
same,"viability, T/C",[8],79.4%
same,"viability, T/C",[9],90.2%
same,"viability, T/C",[10],89.9%
same,"viability, T/C",[11],109%
same,"viability, T/C",[12],81.2%
same,"viability, T/C",[13],81.2%
same,"viability, T/C",[14],91.3%
same,"viability, T/C",[15],87.7%
same,"viability, T/C",[16],104%
same,"viability, T/C",[17],90.7%
same,"viability, T/C",[18],76.3%
same,"viability, T/C",[19],73.7%
same,"viability, T/C",[20],74.1%
same,"viability, T/C",[21],69.9%
same,"viability, T/C",[22],81.4%
same,"viability, T/C",[23],82.9%
same,"viability, T/C",[24],71.5%
same,"viability, T/C",[25],61.8%
same,"viability, T/C",[26],60.8%
same,"viability, T/C",[27],62.5%
same,"viability, T/C",[28],66.8%
same,"viability, T/C",[29],76.9%
same,"viability, T/C",[30],55.3%
same,"viability, T/C",[31],56.6%
same,"viability, T/C",[32],55.3%
same,"viability, T/C",[33],58.6%
same,"viability, T/C",[34],70%
same,"viability, T/C",[35],64.5%
same,"viability, T/C",[36],49.9%
Cc1cccc(N(C)C(=O)C2C(O)CCN2c2nc(C)cc(C(F)(F)F)c2C#N)c1 (stereo not drawn) + Cc1cnc(CNC(=O)c2c(=O)c3ccc(N4CCCN(C)CC4)nc3n3c2sc2ccccc23)cn1,IC50,second compound 0.0316 µM,> 10 µM
same,IC50,second compound 0.1 µM,> 10 µM
same,IC50,second compound 0.316 µM,> 10 µM
same,IC50,second compound 1 µM,> 10 µM
same,IC50,second compound 3.16 µM,> 10 µM
same,IC50,second compound 10 µM,> 10 µM
same,"viability, T/C",[1],103%
same,"viability, T/C",[2],91.3%
same,"viability, T/C",[3],107%
same,"viability, T/C",[4],94.5%
same,"viability, T/C",[5],105%
same,"viability, T/C",[6],100%
same,"viability, T/C",[7],108%
same,"viability, T/C",[8],92.2%
same,"viability, T/C",[9],93.6%
same,"viability, T/C",[10],83.5%
same,"viability, T/C",[11],95%
same,"viability, T/C",[12],85%
same,"viability, T/C",[13],82.6%
same,"viability, T/C",[14],84.9%
same,"viability, T/C",[15],78.1%
same,"viability, T/C",[16],84.8%
same,"viability, T/C",[17],80.7%
same,"viability, T/C",[18],91.7%
same,"viability, T/C",[19],65.3%
same,"viability, T/C",[20],73%
same,"viability, T/C",[21],79.5%
same,"viability, T/C",[22],75.8%
same,"viability, T/C",[23],71.2%
same,"viability, T/C",[24],65.5%
same,"viability, T/C",[25],59.3%
same,"viability, T/C",[26],67%
same,"viability, T/C",[27],58.4%
same,"viability, T/C",[28],62.3%
same,"viability, T/C",[29],67.2%
same,"viability, T/C",[30],60.6%
same,"viability, T/C",[31],63%
same,"viability, T/C",[32],63.2%
same,"viability, T/C",[33],59.6%
same,"viability, T/C",[34],64.5%
same,"viability, T/C",[35],64.5%
same,"viability, T/C",[36],62.7%
Cn1ncnc1[C@H]1c2n[nH]c(=O)c3cc(F)cc(c23)N[C@@H]1c1ccc(F)cc1 + Cc1cnc(CNC(=O)c2c(=O)c3ccc(N4CCCN(C)CC4)nc3n3c2sc2ccccc23)cn1,IC50,second compound 0.0316 µM,> 0.316 µM
same,IC50,second compound 0.1 µM,> 0.316 µM
same,IC50,second compound 0.316 µM,> 0.316 µM
same,IC50,second compound 1 µM,> 0.316 µM
same,IC50,second compound 3.16 µM,> 0.316 µM
same,IC50,second compound 10 µM,> 0.316 µM
same,"viability, T/C","second compound 0.0316 µM, first compound 0.000999 µM",97.7%
same,"viability, T/C","second compound 0.0316 µM, first compound 0.00316 µM",86.3%
same,"viability, T/C","second compound 0.0316 µM, first compound 0.00999 µM",96.8%
same,"viability, T/C",[1],95%
same,"viability, T/C","second compound 0.0316 µM, first compound 0.0999 µM",104%
same,"viability, T/C",[3],88%
same,"viability, T/C","second compound 0.1 µM, first compound 0.000999 µM",86.4%
same,"viability, T/C","second compound 0.1 µM, first compound 0.00316 µM",72.6%
same,"viability, T/C","second compound 0.1 µM, first compound 0.00999 µM",90.8%
same,"viability, T/C",[7],86.2%
same,"viability, T/C","second compound 0.1 µM, first compound 0.0999 µM",94.5%
same,"viability, T/C",[9],78.2%
same,"viability, T/C","second compound 0.316 µM, first compound 0.000999 µM",83.7%
same,"viability, T/C","second compound 0.316 µM, first compound 0.00316 µM",81.1%
same,"viability, T/C","second compound 0.316 µM, first compound 0.00999 µM",71.9%
same,"viability, T/C",[13],79.6%
same,"viability, T/C","second compound 0.316 µM, first compound 0.0999 µM",87.5%
same,"viability, T/C",[15],68%
same,"viability, T/C","second compound 1 µM, first compound 0.000999 µM",77.7%
same,"viability, T/C","second compound 1 µM, first compound 0.00316 µM",74.1%
same,"viability, T/C","second compound 1 µM, first compound 0.00999 µM",64.4%
same,"viability, T/C",[19],71.3%
same,"viability, T/C","second compound 1 µM, first compound 0.0999 µM",76.5%
same,"viability, T/C",[21],62.5%
same,"viability, T/C","second compound 3.16 µM, first compound 0.000999 µM",60.7%
same,"viability, T/C","second compound 3.16 µM, first compound 0.00316 µM",63.8%
same,"viability, T/C","second compound 3.16 µM, first compound 0.00999 µM",57.3%
same,"viability, T/C",[25],60.6%
same,"viability, T/C","second compound 3.16 µM, first compound 0.0999 µM",61%
same,"viability, T/C",[27],54%
same,"viability, T/C","second compound 10 µM, first compound 0.000999 µM",52.1%
same,"viability, T/C","second compound 10 µM, first compound 0.00316 µM",58.4%
same,"viability, T/C","second compound 10 µM, first compound 0.00999 µM",58.2%
same,"viability, T/C",[31],68.7%
same,"viability, T/C","second compound 10 µM, first compound 0.0999 µM",56.1%
same,"viability, T/C",[33],51.8%
O=C(c1cc(Cc2n[nH]c(=O)c3ccccc23)ccc1F)N1CCN(C(=O)C2CC2)CC1 + Cc1cnc(CNC(=O)c2c(=O)c3ccc(N4CCCN(C)CC4)nc3n3c2sc2ccccc23)cn1,IC50,second compound 0.0316 µM,> 10 µM
same,IC50,second compound 0.1 µM,> 10 µM
same,IC50,second compound 0.316 µM,> 10 µM
same,IC50,second compound 1 µM,> 10 µM
same,IC50,second compound 3.16 µM,> 10 µM
same,IC50,second compound 10 µM,> 10 µM
same,"viability, T/C",[1],85.9%
same,"viability, T/C",[2],94.2%
same,"viability, T/C",[3],96.6%
same,"viability, T/C",[4],92%
same,"viability, T/C",[5],90.6%
same,"viability, T/C",[6],75.7%
same,"viability, T/C",[7],88.9%
same,"viability, T/C",[8],88.2%
same,"viability, T/C",[9],91.8%
same,"viability, T/C",[10],88%
same,"viability, T/C",[11],76.7%
same,"viability, T/C",[12],70.3%
same,"viability, T/C",[13],79.9%
same,"viability, T/C",[14],76.5%
same,"viability, T/C",[15],69.7%
same,"viability, T/C",[16],75.1%
same,"viability, T/C",[17],74.3%
same,"viability, T/C",[18],64.9%
same,"viability, T/C",[19],73.8%
same,"viability, T/C",[20],75.6%
same,"viability, T/C",[21],76.2%
same,"viability, T/C",[22],68.8%
same,"viability, T/C",[23],69.5%
same,"viability, T/C",[24],60.4%
same,"viability, T/C",[25],56.5%
same,"viability, T/C",[26],55.9%
same,"viability, T/C",[27],63%
same,"viability, T/C",[28],64.2%
same,"viability, T/C",[29],64.9%
same,"viability, T/C",[30],56.2%
same,"viability, T/C",[31],61.5%
same,"viability, T/C",[32],54.2%
same,"viability, T/C",[33],51.9%
same,"viability, T/C",[34],55.8%
same,"viability, T/C",[35],61.9%
same,"viability, T/C",[36],47.7%
